Measurements from patent publication US4943580A, “Anti-histaminic benzimidazole, imidazopyridine and purine derivatives” (Janssen Pharmaceutica N.V., priority 1989, dated 1990).

These compounds were tested on compound 48/80-induced lethality (assay: Protection of rats from compound 48/80-induced lethality). Conditions: Rattus norvegicus; rats treated subcutaneously or orally 1 hour before compound 48/80 0.5 mg/kg intravenously; 50% of animals protected; survival after 4 hours; read-out: Compound 48/80 lethality test in rats-ED50.
Type: in vivo, rat (male, inbred Wistar strain)
Description: Protection of rats from compound […] lethality
Compound 48/80, a mixture of oligomers obtained by condensation of 4-methoxy-N-methylbenzeneethanamine and formaldehyde has been described as a potent histamine releasing agent (Int. Arch. Allergy, 13, 336 (1958)). The protection from compound 48/80-induced lethal circulatory collapse appears to be a simple way of evaluating quantitatively the antihistaminic activity of test compounds. Male rats of an inbred Wistar strain, weighing 240-260 g were used in the experiment. After overnight starvation the rats were transferred to conditioned laboratories (temp.=[…], relative humidity=65±5%). The rats were treated subcutaneously or orally with a test compound or with the solvent (NaCl solution, 0.9%). One hour after treatment there was injected intravenously compound 48/80, freshly dissolved in water, at a dose of 0.5 mg/kg (0.2 ml/100 g of body weight). In control experiments, wherein 250 solvent-treated animals were injected with the standard dose of compound 48/80, not more than 2.8% of the animals survived after 4 hours. Survival after 4 hours is therefore considered to be a safe criterion of a protective effect of drug administration. Said ED50 -values are the values in mg/kg body weight at which the tested compounds protect 50% of the tested animals against compound 48/80-induced lethality.

| Structure (SMILES) | ED50 [mg/kg] |
| --- | --- |
| CCOCCn1c(CC2CCN(CCc3ccccn3)CC2)nc2cccnc21 [Compound 152, 3-(2-ethoxyethyl)-2-[[1-[2-(2-pyridinyl)ethyl]-4-piperidinyl]methyl]-3H-imidazo-[4,5-b]pyridine] | 0.005 |
| CCOCCn1c(CC2CCN(C)CC2)nc2cccnc21 [Compound 126] | 0.04 |
| CCOCCn1c(NC2CCN(CCOc3ncccn3)CC2)nc2cccnc21 [Compound 133, 3-(2-ethoxyethyl)-N-[1-[2-(2-pyrimidinyloxy)ethyl]-4-piperidinyl]-3H-imidazo-[4,5-b]pyridin-2-amine] | 0.02 |
| CCOCCn1c(NC2CCN(CCc3c(C)nc4n(c3=O)CCCC4)CC2)nc2cccnc21 [Compound 70] | 0.04 |
| CCOCCn1c(NC2CCN(CCNC(=O)c3ccoc3)CC2)nc2cccnc21 [Compound 142, N-[2-[4-[[3-(2-ethoxyethyl)-3H-imidazo[4,5-b]pyridin-2-yl]amino]-1-piperidinyl]ethyl]-3-furancarboxamide] | 0.04 |
| CCOCCn1c(CC2CCN(CCc3c(C)nc4ccccn4c3=O)CC2)nc2cccnc21 [Compound 62] | 0.04 |
| CCOCCn1c(NC2CCN(CC)CC2)nc2cccnc21 [Compound 115] | 0.04 |
| CCOCCn1c(CC2CCN(CCn3c(=O)[nH]c4ccccc43)CC2)nc2cccnc21 [Compound 80] | 0.02 |
| CCOCCn1c(NC2CCN(CCNc3ncccn3)CC2)nc2cccnc21 [Compound 132, 3-(2-ethoxyethyl)-N-[1-[2-(2-pyrimidinylamino)ethyl]-4-piperidinyl]-3H-imidazo[4,5-b]pyridin-2-amine] | 0.01 |
| CCOCCn1c(NC2CCN(CCc3ccc(OC)cc3)CC2)nc2cccnc21 [Compound 45] | 0.02 |
| CCOCCn1c(NC2CCN(CCc3ccccn3)CC2)nc2cccnc21 [Compound 151, 3-(2-ethoxyethyl)-N-[1-[2-(2-pyridinyl)ethyl]-4-piperidinyl]-3H-imidazo-[4,5-b]pyridin-2-amine] | 0.02 |
| CCOCCn1c(NC2CCN(CCc3c(C)nc4ccccn4c3=O)CC2)nc2cccnc21 [Compound 46] | 0.01 |
| CCOCCn1c(NC2CCN(CCNC(=O)c3cccn3C)CC2)nc2cccnc21 [Compound 143, N-[2-[4-[[3-(2-ethoxyethyl)-3H-imidazo[4,5-b]pyridin-2-yl]amino]-1-piperidinyl]ethyl]-1-methyl-1H-pyrrole-2-carboxamide] | 0.02 |
| CCOCCn1c(NC2CCN(CCn3c(=O)[nH]c4ccccc4c3=O)CC2)nc2cccnc21 [Compound 68] | 0.04 |
| CCOCCn1c(CC2CCN(CCNc3ncccn3)CC2)nc2cccnc21 [Compound 131, N-[2-[4-[[3-(2-ethoxyethyl)-3H-imidazo[4,5-b]pyridin-2-yl]methyl]-1-piperidinyl]ethyl]-2-pyrimidinamine] | 0.02 |
| CCOCCn1c(CC2CCN(CCNC(=O)c3nccs3)CC2)nc2cccnc21 [Compound 144, N-[2-[4-[[3-(2-ethoxyetyyl)-3H-imidazo[4,5-b]pyridin-2-yl]methyl]-1-piperidinyl]ethyl]-2-thiazolecarboxamide] | 0.02 |
| CCOCCn1c(NC2CCN(CCNc3nc4cnccc4[nH]3)CC2)nc2cccnc21 [Compound 141, 3-(2-ethoxyethyl)-N-[1-[2-[(1H-imidazo[4,5-c]pyridin-2-yl)amino]ethyl]-4-piperidinyl]-3H-imidazo[4,5-b]pyridin-2-amine] | 0.02 |
| CCOCCn1c(NC2CCN(CCc3c(C)nc4sccn4c3=O)CC2)nc2cccnc21 [Compound 64] | 0.02 |
| CCOCCn1c(NC2CCN(CCc3cc4ccccc4oc3=O)CC2)nc2cccnc21 [Compound 82] | 0.04 |
| CCOCCn1c(NC2CCN(CCCOc3ccc(F)cc3)CC2)nc2cccnc21 [Compound 63] | 0.04 |
| CCOCCn1c(CC2CCN(CCc3ccc(OC)cc3)CC2)nc2cccnc21 [Compound 59] | 0.02 |
| CCOCCn1c(NC2CCN(CCc3scnc3C)CC2)nc2cccnc21 [Compound 67] | 0.02 |
| CCOCCn1c(NC2CCN(CCCC(=O)c3ccc(F)cc3)CC2)nc2cccnc21 [Compound 65] | 0.02 |
| CCOCCn1c(NC2CCN(CCCC(C)=O)CC2)nc2cccnc21 [Compound 61] | 0.04 |
| CCOCCn1c(CC2CCN(CCOc3ncccn3)CC2)nc2cccnc21 [Compound 134, 3-(2-ethoxyethyl)-2-[[1-[2-(2-pyrimidinyloxy)ethyl]4-piperidinyl]methyl]-3H-imidazo-[4,5-b]pyridine] | 0.005 |
| CCOCCn1c(NC2CCN(CCSc3ccccc3)CC2)nc2cccnc21 [Compound 100, 3-(2-ethoxyethyl)-N-[1-[2-(phenylthio)ethyl]-4-piperidinyl]-3H-imidazo [4,5-b]-pyridin-2-amine] | 0.04 |
| CCOCCn1c(NC2CCN(C)CC2)nc2cccnc21 [Compound 108, 3-(2-ethoxyethyl)-N-(1-methyl-4-piperidinyl)-3H-imidazo[4,5-b]pyridin-2-amine] | 0.04 |
